# Laboratory results reported in US9656962B2, “Ring-contracted morphinans and the use thereof” (Purdue Pharma L.P., priority 2013, dated 2017).
# Target: μ-opioid receptor (Homo sapiens (Human), UniProt P35372)
# Test: μ-opioid receptor [35S]GTPγS functional assay, HEK-293 cells (Table 6)
# Type: biochemical
# Details: for Emax: relative to DAMGO; for EC50: μ GTP
# Description: μ-Opioid Receptor Functional Assay Procedures: [^35S]GTPγS functional assays were conducted using freshly thawed μ-receptor membranes prepared in-house from a cell line expressing recombinant μ opioid receptor in a HEK-293, CHO or U-2 OS cell background, or purchased from a commercial source (Perkin Elmer, Shelton, Conn.; or DiscovRx, Fremont, Calif.). Assay reactions were prepared by sequentially adding the following reagents to binding buffer (100 mM NaCl, 10 mM MgCl2, 20 mM HEPES, pH 7.4) on ice (final concentrations indicated): membrane protein (0.026 mg/mL), saponin ([…]), GDP ([…]) and [^35S]GTPγS (0.20 nM; Perkin Elmer, Shelton, Conn.). The prepared membrane solution (190 μl/well) was transferred to 96-shallow well polypropylene plates containing 10 μl of 20× concentrated stock solutions of the agonist [D-Ala^2, N-methyl-Phe^4 Gly-ol^5]-enkephalin (DAMGO) prepared in dimethyl sulfoxide (DMSO). Plates were incubated for 30 min at about 25° C. with shaking Reactions were terminated by rapid filtration onto 96-well Unifilter GF/B filter plates (Perkin Elmer, Shelton, Conn.) using a 96-well tissue harvester (Perkin Elmer, Shelton, Conn.) followed by three filtration washes with 200 μl of ice-cold wash buffer (10 mM NaH2PO4, 10 mM Na2HPO4, pH 7.4). Filter plates were subsequently dried at 50° C. for 2-3 hours. BetaScint scintillation cocktail (Perkin Elmer, Shelton, Conn.) was added (50 μl/well) and plates were counted using a Packard Top-Count for 1 min/well. Data were analyzed using the sigmoidal dose-response curve fitting functions in GraphPad PRISM v. 3.0, or an in-house function for non-linear, sigmoidal dose-response curve-fitting. [^35S]GTPγS functional assays can also be conducted using freshly thawed μ-receptor membranes prepared from a cell line expressing recombinant μ opioid receptor in a CHO-K1 cell background.
# μ GTP Emax (%) is the maximal effect elicited by a compound relative to the effect elicited by DAMGO, a standard μ agonist. Generally, the μ GTP Emax (%) value measures the efficacy of a compound to treat or prevent pain or other Conditions.
# The following TABLE 6 provides results on the activity response of certain Compounds of the Invention at the μ- and κ-opioid receptors determined as described above using HEK-293 cells.
compound,measurement,setting,value
"O=C([C@H]1C[C@]23CCN(CC4CC4)[C@H](Cc4ccc(O)cc42)[C@]3(O)C1)N1CCN(c2ccccc2)CC1 [Compound 96, ((2S,3aS,4R,9bS)-12-(cyclopropylmethyl)-3a,8-dihydroxy-1,2,3,3a,4,5-hexahydro-4,9b-(epiminoethano)cyclopenta-[a]naphthalen-2-yl)(4-phenylpiperazin-1-yl)methanone]",Emax,,14.2 ± 2.5%
same,EC50,,0.0144 ± 0.00255 µM
"CN1CC[C@]23C[C@@H](C(=O)NCCO)C[C@@]2(O)[C@H]1Cc1ccc(O)cc13 [Compound 114, (2R,3aS,4R,9bS)-3a,8-dihydroxy-N-(2-hydroxyethyl)-12-methyl-1,2,3,3a,4,5-hexahydro-4,9b-(epiminoethano)cyclo-penta[a]naphthalene-2-carboxamide]",Emax,,23 ± 1.54%
same,EC50,,8.44 ± 1.54 µM
"O=C(NCc1cccc(O)c1O)[C@H]1C[C@]23CCN(CC4CC4)[C@H](Cc4ccc(O)cc42)[C@]3(O)C1 [Compound 141, (2S,3aS,4R,9bS)-12-(cyclopropylmethyl)-N-(2,3-dihydroxybenzyl)-3a,8-dihydroxy-1,2,3,3a,4,5-hexabydro-4,9b-(epimino-ethano)cyclopenta[a]naphthalene-2-carboxamide]",Emax,,47.4 ± 0.83%
same,EC50,,0.00117 ± 0.0001 µM
"O=C(NCc1cccc(O)c1)[C@@H]1C[C@]23CCN(CC4CC4)[C@H](Cc4ccc(O)cc42)[C@]3(O)C1 [Compound 142, (2R,3aS,4R,9bS)-12-(cyclopropylmethyl)-3a,8-dihydroxy-N-(3-hydroxybenzyl)-1,2,3,3a,4,5-hexahydro-4,9b-(epimino-ethano)cyclopenta[a]naphthalene-2-carboxamide]",Emax,,0%
same,EC50,bound given in μM,> 20 µM
"CN1CC[C@]23C[C@H](C(=O)NCCO)C[C@@]2(O)[C@H]1Cc1ccc(O)cc13 [Compound 115, (2S,3aS,4R,9bS)-3a,8-dihydroxy-N-(2-hydroxyethyl)-12-methyl-1,2,3,3a,4,5-hexahydro-4,9b-(epiminoethano)cyclo-penta[a]naphthalene-2-carboxamide]",Emax,,35 ± 1.14%
same,EC50,,0.917 ± 0.131 µM
"Cc1c(Cl)cccc1CNC(=O)[C@H]1C[C@]23CCN(CC4CC4)[C@H](Cc4ccc(O)cc42)[C@]3(O)C1 [Compound 138, (2S,3aS,4R,9bS)-N-(3-chloro-2-methylbenzyl)-12-(cyclopropylmethyl)-3a,8-dihydroxy-1,2,3,3a,4,5-hexahydro-4,9b-(epiminoethano)cyclopenta-[a]naphthalene-2-carboxamide]",Emax,,52.4 ± 1.72%
same,EC50,,0.00071 ± 6.8e-05 µM
"CN1CC[C@]23C[C@@H](C(=O)NCCN4CCOCC4)C[C@@]2(O)[C@H]1Cc1ccc(O)cc13 [Compound 112, (2R,3aS,4R,9bS)-3a,8-dihydroxy-12-methyl-N-(2-morpholinoethyl)-1,2,3,3a,4,5-hexahydro-4,9b-(epimino-ethano)cyclopenta[a]naphthalene-2-carboxamide]",Emax,,38.8 ± 1.54%
same,EC50,,10.2 ± 0.241 µM
"O=C(NCc1cccc(Cl)c1)[C@@H]1C[C@]23CCN(CC4CC4)[C@H](Cc4ccc(O)cc42)[C@]3(O)C1 [Compound 152, (2R,3aS,4R,9bS)-N-(3-chlorobenzyl)-12-(cyclopropylmethyl)-3a,8-dihydroxy-1,2,3,3a,4,5-hexahydro-4,9b-(epimino-ethano)cyclopenta[a]naphthalene-2-carboxamide]",Emax,,4.45 ± 3.18%
same,EC50,bound given in μM,> 20 µM
"O=C(NCCN1CCCCC1)[C@H]1C[C@]23CCN(CC4CC4)[C@H](Cc4ccc(O)cc42)[C@]3(O)C1 [Compound 133, (2S,3aS,4R,9bS)-12-(cyclopropylmethyl)-3a,8-dihydroxy-N-(2-(piperidin-1-yl)ethyl)-1,2,3,3a,4,5-hexahydro-4,9b-(epiminoethano)cyclopenta[a]naphthalene-2-carboxamide]",Emax,,29.8 ± 1.22%
same,EC50,,0.0142 ± 0.00373 µM
"O=C(NCc1cc(Cl)cc(Cl)c1)[C@@H]1C[C@]23CCN(CC4CC4)[C@H](Cc4ccc(O)cc42)[C@]3(O)C1 [Compound 150, (2R,3aS,4R,9bS)-12-(cyclopropylmethyl)-N-(3,5-dichlorobenzyl)-3a,8-dihydroxy-1,2,3,3a,4,5-hexahydro-4,9b-(epimino-ethano)cyclopenta[a]naphthalene-2-carboxamide]",Emax,,-1%
same,EC50,bound given in μM,> 20 µM
"Cc1ccc(CNC(=O)[C@H]2C[C@]34CCN(C)[C@H](Cc5ccc(O)cc53)[C@]4(O)C2)cc1 [Compound 97, (2S,3aS,4R,9bS)-3a,8-dihydroxy-12-methyl-N-(4-methylbenzyl)-1,2,3,3a,4,5-hexahydro-4,9b-(epiminoethano)cyclo-penta[a]naphthalene-2-carboxamide]",Emax,,90.3 ± 0.88%
same,EC50,,0.0281 ± 0.00154 µM
"Cc1ccc(CNC(=O)[C@@H]2C[C@]34CCN(C)[C@H](Cc5ccc(O)cc53)[C@]4(O)C2)cc1 [Compound 104, (2R,3aS,4R,9bS)-3a,8-dihydroxy-12-methyl-N-(4-methylbenzyl)-1,2,3,3a,4,5-hexahydro-4,9b-(epiminoethano)cyclo-penta[a]naphthalene-2-carboxamide]",Emax,,52 ± 3.51%
same,EC50,,2.93 ± 1.08 µM
"CN1CC[C@]23C[C@@H](C(=O)NCc4ccc(Cl)cc4Cl)C[C@@]2(O)[C@H]1Cc1ccc(O)cc13 [Compound 103, (2R,3aS,4R,9bS)-N-(2,4-dichlorobenzyl)-3a,8-dihydroxy-12-methyl-1,2,3,3a,4,5-hexahydro-4,9b-(epiminoethano)cyclo-penta[a]naphthalene-2-carboxamide]",Emax,,68 ± 9.54%
same,EC50,,0.389 ± 0.0733 µM
"O=S(=O)(N[C@@H]1C[C@]23CCN(CC4CC4)[C@H](Cc4ccc(O)cc42)[C@]3(O)C1)c1ccccc1 [Compound 95, N-((2R,3aS,4R,9bR)-12-(cyclopropyl-methyl)-3a,8-dihydroxy-1,2,3,3a,4,5-hexahydro-4,9b-(epiminoethano)-cyclopenta[a]naphthalen-2-yl)benzene-sulfonamide]",Emax,,1%
same,EC50,bound given in μM,> 20 µM
"CC(C)CNC(=O)[C@H]1C[C@]23CCN(C)[C@H](Cc4ccc(O)cc42)[C@]3(O)C1 [Compound 102, (2S,3aS,4R,9bS)-3a,8-dihydroxy-N-isobutyl-12-methyl-1,2,3,3a,4,5-hexahydro-4,9b-(epiminoethano)cyclo-penta[a]naphthalene-2-carboxamide]",Emax,,49.5 ± 4.94%
same,EC50,,0.655 ± 0.128 µM
"CC(C)N1CCN(C(=O)[C@@H]2C[C@]34CCN(CC5CC5)[C@H](Cc5ccc(O)cc53)[C@]4(O)C2)CC1 [Compound 132, ((2R,3aS,4R,9bS)-12-(cyclopropylmethyl)-3a,8-dihydroxy-1,2,3,3a,4,5-hexahydro-4,9b-(epiminoethano)cyclopenta-[a]naphthalen-2-yl)(4-isopropylpiperazin-1-yl)methanone]",Emax,,-1%
same,EC50,bound given in μM,> 20 µM
"O=C(NCc1ccccc1O)[C@@H]1C[C@]23CCN(CC4CC4)[C@H](Cc4ccc(O)cc42)[C@]3(O)C1 [Compound 149, (2R,3aS,4R,9bS)-12-(cyclopropylmethyl)-3a,8-dihydroxy-N-(2-hydroxybenzyl)-1,2,3,3a,4,5-hexahydro-4,9b-(epimino-ethano)cyclopenta[a]naphthalene-2-carboxamide]",Emax,,0%
same,EC50,bound given in μM,> 20 µM
"O=C(NCc1ccc(O)c(O)c1)[C@@H]1C[C@]23CCN(CC4CC4)[C@H](Cc4ccc(O)cc42)[C@]3(O)C1 [Compound 140, (2R,3aS,4R,9bS)-12-(cyclopropylmethyl)-N-(3,4-dihydroxybenzyl)-3a,8-dihydroxy-1,2,3,3a,4,5-hexahydro-4,9b-(epimino-ethano)cyclopenta[a]naphthalene-2-carboxamide]",Emax,,0.33 ± 0.67%
same,EC50,bound given in μM,> 20 µM
"O=C(NCCc1ccc(Cl)cc1Cl)[C@@H]1C[C@]23CCN(CC4CC4)[C@H](Cc4ccc(O)cc42)[C@]3(O)C1 [Compound 130, (2R,3aS,4R,9bS)-12-(cyclopropylmethyl)-N-(2,4-dichlorophenethyl)-3a,8-dihydroxy-1,2,3,3a,4,5-hexahydro-4,9b-(epiminoethano)cyclopenta[a]naphthalene-2-carboxamide]",Emax,,0%
same,EC50,bound given in μM,> 20 µM
"CN1CC[C@]23C[C@H](NC(=O)c4ccccc4)C[C@@]2(O)[C@H]1Cc1ccc(O)cc13 [Compound 109, N-((2S,3aS,4R,9bR)-3a,8-dihydroxy-12-methyl-1,2,3,3a,4,5-hexahydro-4,9b-(epiminoethano)cyclopenta[a]naphthalen-2-yl)benzamide]",Emax,,70.4 ± 0.98%
same,EC50,,0.0804 ± 0.0141 µM
"O=C(NCc1ccc(O)cc1Cl)[C@@H]1C[C@]23CCN(CC4CC4)[C@H](Cc4ccc(O)cc42)[C@]3(O)C1 [Compound 127, (2R,3aS,4R,9bS)-N-(2-chloro-4-hydroxybenzyl)-12-(cyclopropylmethyl)-3a,8-dihydroxy-1,2,3,3a,4,5-hexahydro-4,9b-(epiminoethano)cyclopenta-[a]naphthalene-2-carboxamide]",Emax,,-1%
same,EC50,bound given in μM,> 20 µM
